Where “and” joins values, the source holds several entries; their conditions need not be identical. Identical values can stand only once.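 A five-concentration, 48-hour dose response in 96-well plates underlies each endpoint, interpolated linearly between surrounding concentrations. GI50 is the concentration that inhibits growth by half. At the TGI there is no net growth.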 Where only a bound is given, the exact number is not on record here.

The assay relates to MDA-MB-468 breast. Description: inhibition of tumour cell growth, NCI panel, 48 h.
On to `NC(CSC(c1ccccc1)(c1ccccc1)c1ccccc1)C(=O)O` (stereo not given), for which the GI50 was 406 nM and the TGI came out at 6240 nM.
For the molecule `CN(C)Cc1ccc(NC(=O)c2cncc(C#Cc3cnc(N)c4ncccc34)c2)cc1C(F)(F)F`, the GI50 is 1560 nM and the TGI was determined as 3210 nM.
As to `O=C(CCN1CCCC1)Nc1ccc2c(Nc3ccc(F)cc3)c3ccccc3nc2c1`, the GI50 was 1260 nM and the TGI was 2800 nM.
Take `COc1ccc(-c2nc(NC(=O)CS(=O)(=O)c3ccc(F)cc3)sc2C)cc1`: the GI50 was 7050 nM and the TGI was 53800 nM.
Consider `CNC(=O)c1c(NC(=O)c2ccccc2C(F)(F)F)sc2c1CCC(=O)C2`, for which the GI50 was 1810 nM and the TGI was 5360 nM.
For `CCCC(=O)Oc1ccc(/C(=C(\C)c2ccc(Cl)cc2)c2ccc(OCCN(CC)CC)cc2)cc1`, the GI50 is 1530 nM and the TGI was 3670 nM.
For `COC(=O)CNC(=O)C(=O)c1c(O)c(O)c(C(C)C)c2cc(C)c(-c3c(C)cc4c(C(C)C)c(O)c(O)c(C(=O)C(=O)NCC(=O)OC)c4c3O)c(O)c12`, in that order: 1460 nM and 4800 nM.
For `CC(=O)CC[N+](C)(C)C`, the GI50 was 1750 nM and the TGI is 4390 nM.
As for `O=C(CSc1nc2ccccc2c(=O)n1-c1ccc(Cl)cc1)N/N=C/c1ccc(Oc2ccc(Cl)cc2)cc1`, the GI50 was 2080 nM and the TGI turned out to be 5080 nM.
For the molecule `COc1cc2c(O[C@@H]3OC[C@H](OC(C)=O)[C@H](OC(C)=O)[C@H]3O)c3c(c(-c4ccc5c(c4)OCO5)c2cc1OC)C(=O)OC3`, the GI50 is 731 nM and the TGI is above 10000 nM.
In the same order, the values of `O=[N+]([O-])c1ccccc1/C=N\NC(=S)N/N=C/c1ccccc1[N+](=O)[O-]` are 1400 nM and 21300 nM.
As for `COc1ccc(Cn2cc3c(c2-c2ccccc2)CCc2cnoc2-3)cc1`, the GI50 is 79.5 nM and the TGI is above 100000 nM.
For `CN1CCN(C2=C(Cl)C(=O)c3ccccc3C2=O)CC1`, the GI50 was 1110 nM and the TGI amounted to 2610 nM.
In the same order, the values of `Cc1ccc(S(=O)(=O)c2nc(-c3ccc(F)cc3)oc2S(C)(=O)=O)cc1` are 2500 nM and above 19800 nM.
For the molecule `C[C@H]1C[C@@H](n2c(Nc3ccc(OC(F)(F)F)cc3)nc3cc(CCC(=O)O)ccc32)CC(C)(C)C1`, the GI50 is 15700 nM and the TGI was 38600 nM.
In the same order, the values of `Nc1c(C(=O)c2cccc(-c3cccnc3)c2)cnn1-c1ccc(F)cc1` are above 25000 nM and above 25000 nM.
With `Cc1cccc(N2CCN(C3=C(Cl)C(=O)c4ncccc4C3=O)CC2)c1`, the GI50 is 1540 nM and the TGI was determined as 3080 nM.
On to `Cc1cc(NC(=O)NCCOc2ccc(N3C(N)=NC(N)=NC3(C)C)cc2Cl)ccc1S(=O)(=O)F`, for which the GI50 was 1460 nM and the TGI amounted to 27600 nM.
As to `COc1ccc(CCN2CCCn3c2nc2ccccc2c3=O)cc1`, the GI50 is 39.2 nM and the TGI turned out to be 43900 nM.
For `CCN(Cc1ccc(Cl)c(Cl)c1)c1ccc2nc(N)nc(N)c2c1C`, the GI50 is 13.8 nM and the TGI came to 1300 nM.
For `CCN1C(=O)N(CC)C2C1NN=c1s/c(=C3\C(=O)Nc4ccccc43)c(=O)n12` (stereo not given), in that order: 297 nM and 2820 nM.
Turning to `Cc1cccc(CNc2c3ccccc3nc3ccccc23)c1`, the GI50 is 1580 nM and the TGI stood at 3630 nM.
Turning to `Nc1[nH]nc(Nc2ccccc2)c1-c1nc2ccccc2s1`, the GI50 is 2230 nM and the TGI was found to be 5980 nM.
For `CN[C@@H](C)C(=O)N[C@H](C(=O)N1CCC[C@H]1c1nc(C(=O)c2ccc(F)cc2)cs1)C1CCCCC1`, in that order: 591 nM and 20300 nM.
For `COc1ccc(/C=C\c2cc(OC)c(OC)c(OC)c2)cc1NC(=O)/C=C/c1ccc(OC)c(OC)c1`, in that order: 1900 nM and above 100000 nM.
As for `O=C1/C(=C/c2ccc(F)cc2)COc2ccc(O)c(O)c21`, the GI50 was 2280 nM and the TGI was 5600 nM.
`O=C1c2c(c3c4cc(F)ccc4oc3c3[nH]c4ccccc4c23)C(=O)N1O`: the GI50 was 2140 nM and the TGI stood at 7930 nM.
For the molecule `CCc1nc(N)nc(N)c1C#CC(C)c1ccc(-c2ccncc2)cc1Cl` (stereo not given), the TGI is 1570 nM and 6460 nM.
For `O=[N+]([O-])c1ccc(Sc2cccc[n+]2[O-])c2nonc12`, the GI50 was 5780 nM and the TGI stood at 20700 nM.
As to `COc1ccc(-n2nc(C)c3c(Nc4ccc(NC(=O)Nc5cccc(C(F)(F)F)c5)cc4)ncnc32)cc1`, the GI50 was 2020 nM and the TGI is 4900 nM.
On to `CN(C)S(=O)(=O)c1cccc(C(=O)Nc2nc(-c3ccc(F)c(F)c3)cs2)c1`, for which the GI50 is 3790 nM and the TGI amounted to 97500 nM.
For `O=C(CSSCC(=O)c1ccc(Cl)cc1)c1ccc(Cl)cc1`, in that order: 2260 nM and 5980 nM.
Turning to `O=C(O)CCCN1C(=O)/C(=C/C(Cl)=C/c2ccccc2)SC1=S`, the GI50 is 1180 nM and the TGI stood at 3290 nM.

The record behind these values is PubChem BioAssay (NCI).
